According to patent US20250136559A1, “SMO MODULATOR COMPOUNDS” (OMASS THERAPEUTICS LIMITED, priority 2022, published 2025):

Assays:
Type in all cases: cell-based
mouse SMO^WT = target: T1, mouse SMO^WT (Mus musculus, UniProt P56726); assay: Mouse assay: Gli1 qPCR in MEF cells stably expressing mouse SMO WT; settings: mSHh-treated, 24 hours; for IC50: Gli1 inhibition by qPCR, read-out: Mouse WT pIC50 (converted); for Mouse WT % Inh: percentage Gli1 inhibition
T1 construct: expressed in transfected cells
T1 sequence (P56726 33-793): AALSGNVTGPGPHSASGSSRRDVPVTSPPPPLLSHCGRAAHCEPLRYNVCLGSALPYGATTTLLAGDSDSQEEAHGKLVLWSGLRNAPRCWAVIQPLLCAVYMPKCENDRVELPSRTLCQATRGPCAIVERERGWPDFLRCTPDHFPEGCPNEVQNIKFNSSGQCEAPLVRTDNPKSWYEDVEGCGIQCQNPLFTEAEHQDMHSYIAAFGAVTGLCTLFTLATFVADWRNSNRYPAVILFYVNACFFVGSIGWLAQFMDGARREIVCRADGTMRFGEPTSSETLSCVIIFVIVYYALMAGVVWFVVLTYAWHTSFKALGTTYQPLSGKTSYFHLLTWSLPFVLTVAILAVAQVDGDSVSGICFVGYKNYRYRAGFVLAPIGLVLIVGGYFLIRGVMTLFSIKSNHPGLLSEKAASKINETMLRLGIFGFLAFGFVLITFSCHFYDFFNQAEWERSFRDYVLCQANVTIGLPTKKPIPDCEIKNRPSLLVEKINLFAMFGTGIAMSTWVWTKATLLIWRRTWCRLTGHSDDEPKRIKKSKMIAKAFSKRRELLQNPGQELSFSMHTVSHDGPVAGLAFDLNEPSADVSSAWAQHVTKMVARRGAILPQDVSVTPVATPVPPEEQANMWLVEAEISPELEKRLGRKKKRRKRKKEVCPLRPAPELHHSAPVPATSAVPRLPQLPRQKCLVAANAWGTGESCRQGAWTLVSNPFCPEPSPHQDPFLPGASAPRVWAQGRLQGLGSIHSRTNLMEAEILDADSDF
Experimental: (§1) Cell culture. All materials were purchased from Sigma-Aldrich, unless otherwise stated.
(§2) Compound treatment. […] After 1 hour incubation, cells were treated with assay medium containing mSHh prepared at 2.5× of final assay concentrations specified in the text and incubated for a further 24 hours at 37′C in a humidified 95% air/5% CO2 atmosphere prior to qPCR analysis.
(§3) Cell lysis and one-step qPCR. The Cells-to-CT™ 1-Step TaqMan® Kit was used in conjunction with TaqMan primer-probe assays for the detection of Gli1 (FAM, Mm00494654_m1) and Gusb (VIC, Mm01197698_m1) genes (all purchased from Life Technologies). Following 24 hours cell treatment, spent medium was removed and cells were washed with PBS before the application of lysis and stop solution as per manufacturer's instructions. The qPCR reactions were run in a 384-well PCR plate using master mix prepared according to manufacturer's instructions and cell lysate samples from treatment wells. Real-time PCR amplification was detected using the Bio-Rad CFX384 Touch PCR system. Four experimental replicates (two cell replicates and two qPCR replicates) were performed for each compound concentration tested. Real-time data were analysed using the CFX Maestro software (Bio-Rad) and obtained expression values were converted to percentage Gli1 inhibition by normalising to the average Gli1 expression of mSHh-treated control samples.

mouse SMO^D473H = target: T2, mouse SMO^D473H (Mus musculus, UniProt P56726, D477H); assay: Mouse assay: Gli1 qPCR in MEF cells stably expressing mouse SMO D473H; settings: mSHh-treated, 24 hours; for IC50: Gli1 inhibition by qPCR, read-out: Mouse D473H pIC50 (converted); for Mouse D473H % Inh: percentage Gli1 inhibition
T2 construct: expressed in transfected cells
T2 sequence (P56726 33-793 D477H): as the sequence (P56726 33-793) above, with D445H counted along it
Experimental: as §1, §2, §3

mouse SMO^W535L = target: T3, mouse SMO^W535L (Mus musculus, UniProt P56726, W539L); assay: Mouse assay: Gli1 qPCR in MEF cells stably expressing mouse SMO W535L; settings: mSHh-treated, 24 hours; for IC50: Gli1 inhibition by qPCR, read-out: Mouse W535L pIC50 (converted); for Mouse W535L % Inh: percentage Gli1 inhibition
T3 construct: expressed in transfected cells
T3 sequence (P56726 33-793 W539L): as the sequence (P56726 33-793) above, with W507L counted along it
Experimental: as §1, §2, §3

SMILES | IC50 (mouse SMO^WT) | Mouse WT % Inh (mouse SMO^WT) | IC50 (mouse SMO^D473H) | Mouse D473H % Inh (mouse SMO^D473H) | IC50 (mouse SMO^W535L) | Mouse W535L % Inh (mouse SMO^W535L)
O=C(Nc1ccc(-c2nc(C3CC3)n[nH]2)cc1)c1cccc(CN2CCSCC2)c1 [Example 1-1, N-[4-(3-cyclopropyl-1H-1,2,4-triazol-5-yl)phenyl]-3-(thiomorpholin-4-ylmethyl)benzamide] | 20 nM | 99.4% | 200 nM | 99.3% | 251 nM | 66.8%
CC1(C)CN(Cc2cccc(C(=O)Nc3ccc(-c4nc(C5CC5)n[nH]4)cc3)c2)CCS1(=O)=O [Example 1-3, N-[4-(3-cyclopropyl-1H-1,2,4-triazol-5-yl)phenyl]-3-[(2,2-dimethyl-1,1-dioxo-1,4-thiazinan-4-yl)methyl]benzamide] | 20 nM | 99.4% | 63.1 nM | 99.7% | 158 nM | 62.6%
O=C(Nc1ccc(-c2nc(C3CC3)n[nH]2)cc1)c1cc(CN2CCS(=O)(=O)CC2)ccc1F [Example 2-1, N-[4-(5-Cyclopropyl-1H-1,2,4-triazol-3-yl)phenyl]-5-[(1,1-dioxo-1,4-thiazinan-4-yl)methyl]-2-fluorobenzamide] | 15.8 nM | 96.5% | 200 nM | 95.3% | 79.4 nM | 68.2%
O=C(Nc1ccc(-c2nc(C3CC3)n[nH]2)cc1)c1ccc(F)c(CN2CCS(=O)(=O)CC2)c1 [Example 2-3, N-[4-(5-Cyclopropyl-1H-1,2,4-triazol-3-yl)phenyl]-3-[(1,1-dioxo-1,4-thiazinan-4-yl)methyl]-4-fluorobenzamide] | 20 nM | 94.4% | 158 nM | 93.9% | 79.4 nM | 76.5%
O=C(Nc1ccc(-c2nc(C3CC3)n[nH]2)cc1)c1ccc(Cl)c(CN2CCS(=O)(=O)CC2)c1 [Example 2-5, 4-Chloro-N-[4-(5-cyclopropyl-1H-1,2,4-triazol-3-yl)phenyl]-3-[(1,1-dioxo-1,4-thiazinan-4-yl)methyl]benzamide] | 15.8 nM | 95.5% | 158 nM | 94.4% | 100 nM | 72.2%

Results, then the molecule that gave them:

IC50 (mouse SMO^WT) | Mouse WT % Inh (mouse SMO^WT) | IC50 (mouse SMO^D473H) | Mouse D473H % Inh (mouse SMO^D473H) | IC50 (mouse SMO^W535L) | Mouse W535L % Inh (mouse SMO^W535L) | SMILES
20 nM | 99.1% | 158 nM | 96.6% | 200 nM | 77.1% | CC(C)c1n[nH]c(-c2ccc(NC(=O)c3cccc(CN4CCS(=O)(=O)CC4)c3)cc2)n1.Cl [Example 3-1, 3-[(1,1-dioxo-1,4-thiazinan-4-yl)methyl]-N-[4-(3-propan-2-yl-1H-1,2,4-triazol-5-yl)phenyl]benzamide]
25.1 nM | 97.3% | 501 nM | 91.0% | 100 nM | 41.6% | CC(C)(C)c1n[nH]c(-c2ccc(NC(=O)c3cccc(CN4CCS(=O)(=O)CC4)c3)cc2)n1 [Example 3-2, N-[4-(5-tert-Butyl-1H-1,2,4-triazol-3-yl)phenyl]-3-[(1,1-dioxo-1,4-thiazinan-4-yl)methyl]benzamide]
25.1 nM | 98.0% | 200 nM | 97.7% | 200 nM | 63.0% | Cl.O=C(Nc1ccc(-c2nc(C3CCC3)n[nH]2)cc1)c1cccc(CN2CCS(=O)(=O)CC2)c1 [Example 3-4, N-[4-(3-Cyclobutyl-1H-1,2,4-triazol-5-yl)phenyl]-3-[(1,1-dioxo-1,4-thiazinan-4-yl)methyl]benzamide]
31.6 nM | 98.4% | 200 nM | 98.4% | 79.4 nM | 51.7% | O=C(Nc1ccc(-c2nc(C3CCCCC3)n[nH]2)cc1)c1cccc(CN2CCS(=O)(=O)CC2)c1 [Example 3-6, N-[4-(3-Cyclohexyl-1H-1,2,4-triazol-5-yl)phenyl]-3-[(1,1-dioxo-1,4-thiazinan-4-yl)methyl]benzamide]
25.1 nM | 98.5% | 200 nM | 97.3% | 200 nM | 70.7% | O=C(Nc1ccc(-c2nc(CC3CC3)n[nH]2)cc1)c1cccc(CN2CCS(=O)(=O)CC2)c1 [Example 3-7, N-[4-[3-(Cyclopropylmethyl)-1H-1,2,4-triazol-5-yl]phenyl]-3-[(1,1-dioxo-1,4-thiazinan-4-yl)methyl]benzamide]
20 nM | 98.6% | 158 nM | 98.0% | 100 nM | 57.9% | O=C(Nc1ccc(-c2nc(C3CCN(c4ccccc4)C3)n[nH]2)cc1)c1cccc(CN2CCS(=O)(=O)CC2)c1 (stereo not shown) [Example 3-8, 3-[(1,1-Dioxo-1,4-thiazinan-4-yl)methyl]-N-[4-[3-(1-phenylpyrrolidin-3-yl)-1H-1,2,4-triazol-5-yl]phenyl]benzamide]
31.6 nM | 95.1% | 316 nM | 93.8% | 63.1 nM | 63.2% | O=C(Nc1ccc(-c2nc(C3CCCN(Cc4ccccc4)C3)n[nH]2)cc1)c1cccc(CN2CCS(=O)(=O)CC2)c1 (stereo not shown) [Example 3-9, N-[4-[3-(1-Benzylpiperidin-3-yl)-1H-1,2,4-triazol-5-yl]phenyl]-3-[(1,1-dioxo-1,4-thiazinan-4-yl)methyl]benzamide]
12.6 nM | 99.1% | 251 nM | 97.9% | 100 nM | 63.9% | O=C(Nc1ccc(-c2nc(-c3cccc(F)c3)n[nH]2)cc1)c1cccc(CN2CCS(=O)(=O)CC2)c1 [Example 3-10, 3-[(1,1-Dioxo-1,4-thiazinan-4-yl)methyl]-N-[4-[3-(3-fluorophenyl)-1H-1,2,4-triazol-5-yl]phenyl]benzamide]
10 nM | 98.4% | 100 nM | 98.5% | 501 nM | 62.5% | O=C(Nc1ccc(-c2nc(-c3cccc(Cl)c3)n[nH]2)cc1)c1cccc(CN2CCS(=O)(=O)CC2)c1 [Example 3-11, N-[4-[3-(3-Chlorophenyl)-1H-1,2,4-triazol-5-yl]phenyl]-3-[(1,1-dioxo-1,4-thiazinan-4-yl)methyl]benzamide]
20 nM | 99.3% |  |  |  |  | Cc1oc(-c2ccc(NC(=O)c3ccc(Cl)c(CN4CCS(=O)(=O)CC4)c3)cn2)nc1Br [Example 5-1, N-[6-(4-bromo-5-methyl-1,3-oxazol-2-yl)pyridin-3-yl]-4-chloro-3-[(1,1-dioxo-1,4-thiazinan-4-yl)methyl]benzamide]
63.1 nM | 98.6% |  |  |  |  | O=C(Nc1ccc(-c2cc(C3CC3)[nH]n2)nc1)c1ccc(Cl)c(CN2CCS(=O)(=O)CC2)c1 [Example 5-3, 4-Chloro-N-[6-(5-cyclopropyl-1H-pyrazol-3-yl)pyridin-3-yl]-3-[(1,1-dioxo-1,4-thiazinan-4-yl)methyl]benzamide]
